Here are results for two molecules from patent publication US20100333217A1, “SCREENING METHOD FOR THE COMPOSITION FOR PREVENTION OR TREATMENT OF OSTEOPOROSIS AND METABOLIC BONE DISEASE USING TALLYHO/JNGJ MOUSE” (KOREA RESERACH INSTITUTE OF CHEMICAL TECHNOLOGY, priority 2007, published 2010).

For assay [1], the system named is RANKL. Particulars: cells separated from bone marrow of treated TH mice and cultured, RT-PCR; vs vehicle (FIG. 21). On the procedure:
(§1) After separating mRNA from the cell of FIG. 4, the expression levels of the genes related to the differentiation of osteoblast and osteoclast and cytokines were analyzed. The total RNA was obtained from the Extraction Kit (Intron, Seongnam, Korea) according to the manufacturer's protocol. The separated RNA was weighed by measuring the absorbance. The reverse transcription PCR (RT-PCR) was performed using primers listed in Table 1 under the following conditions to examine the expression level of each of the genes.
(§2) Reverse Transcription System (Promega, USA) was added with total RNA 1 μg, 10 mM dNTP 2 μl, 100 pmole Oligo dT 1 μl, 10×buffer 2 μl, 25 mM MgCl2 4 μl, RNase inhibitor 0.2 μl, AMV RTase 0.2 μl, and DEPC-treated water, and cultured at 42° C. for 60 minutes and at 72° C. for 10 minutes to prepare cDNA. Then, the reverse transcripted cDNA sample was amplified using primer pairs specific to respective target genes. The PCR was repeated 25-30 times after denaturation at 95° C. for 5 minutes. In specific, the PCR was performed under the condition of denaturation at 95° C. for 30 seconds, primer annealing at 55° C. (NPY1receptor), 56° C.
(§3) Thereafter, the bone mineral density and the bone mineral content of the femur and the thickness and the bone mineral density of the skull were measured as described in Examples 2 and 3.

In assay [2] the test system is OPG. The following applies: cells separated from bone marrow of treated TH mice and cultured, RT-PCR; vs vehicle (FIG. 21). The method, then: as §1, §2, §3
Assay [3] concerns male TH mice. The following applies: oral 5 mg/kg once a day for 4 weeks, femur of 8-week-old mouse, micro-CT (FIG. 19). On the procedure:
Thereafter, the bone mineral density and the bone mineral content of the femur and the thickness and the bone mineral density of the skull were measured as described in Examples 2 and 3. […] The TH mice and B6 mice were sacrificed with carbon dioxide. The femurs thereof were extracted and scanned 400 times with a thickness of […] using eXplore Locus micro-CT (GE Healthcare, USA) which is devised as a tomographic apparatus for small animals. The scanned images were accurately reformed using Microview (GE Healthcare, USA) to obtain final histomorphological images of the femurs.

The subject of assay [4] is male TH mice. The assay can be described thus: Micro-CT bone mineral density, bone mineral content and skull thickness in drug-treated male TH mice. The assay is classed as in vivo, mouse. On the procedure: Control mice (C57BL/6) and TH mice were freely fed, and their bone mineral densities were measured every week from 4 week age to 20 week age after delectation. The mice were anesthetized with Avertin (2,2,2-tribromoethanol) to keep them alive while measuring their bone mineral densities. […] Thereafter, the resulting images were reformed using Microview (GE Healthcare, USA) to obtain the final bone mineral density (BMD) and the final bone mineral content (BMC) (see FIG. 2).
Control mice (C57BL/6) and TH mice were fed freely. […] Thereafter, the bone thicknesses and the bone mineral densities of the extracted skulls were measured as described in Example 2, using a tomographic apparatus (micro-CT) for animals.
8-week-old male TH mice were orally administered with parathyroid hormone (hPTH(1-34), Sigma, USA), which is started to be used as an osteoporosis medicine increasing the bone mineral content, with a concentration of 50 μg/kg, once a day for 4 weeks.

For assay [5], the system named is IL-6. Particulars: male TH mice, oral 5 mg/kg once a day for 4 weeks; ELISA (FIG. 20). The method, then:
as §3
Meanwhile, after separating the blood serum, IL-6 level was measured using ELISA Kit (ALPCO diagnostics, USA).
On the technique in general: An ELISA detects its analyte on a solid surface through an enzyme-linked reagent.

For the molecule `NCCCC(O)(P(=O)(O)O)P(=O)(O)O` [alendronate], the RANKL gene expression result in assay [1] is reported as “decreased”. Moreover, in assay [2], the OPG gene expression result was “increased”. For the same molecule, the “histomorphological images of the femurs (recovering the bone loss)” value in assay [3] was “filled with trabeculars”. For the same molecule, the “bone mineral contents in the femurs” value in assay [4] (4-week-old male TH mice, oral 5 mg/kg once a day for 4 weeks, vs 8-week-old TH mice treated with vehicle only (FIG. 16)) is listed as “significantly recovered”. Besides, in assay [4] (4-week-old male TH mice, oral 5 mg/kg once a day for 4 weeks, vs TH mice vehicle (FIG. 17)), the “thicknesses of the skulls” value is recorded as “significantly recovered”. Also, the “IL-6 level in blood serum” value in assay [5] is “low IL-6 level”.

With “parathyroid hormone (hPTH(1-34) (SVSEIQLMHNLGKHLNSMERVEWLRKKLQDVHNF; Parathyroid hormone; UniProt P01270 32-65, looked up, fragment) [parathyroid hormone hPTH(1-34), Sigma; osteoporosis medicine increasing the bone mineral content]”, the bone mineral densities result in assay [4] (8-week-old male TH mice, 50 μg/kg once a day for 4 weeks, orally administered (so in the source), femur, vs 12-week-old TH mice treated with vehicle only (FIG. 22)) is given as “significantly recovered”. Moreover, the bone mineral contents entry in assay [4] (8-week-old male TH mice, 50 μg/kg once a day for 4 weeks, orally administered (so in the source), femur, vs 12-week-old TH mice treated with vehicle only (FIG. 23)) was “significantly recovered”.
